Reference: patent EP2272817A1, “PAI-1 INHIBITOR” (Institute of Medicinal Molecular Design, Inc., priority 2008, dated 2009)

Biological target: recombinant human PAI-1 (Homo sapiens, UniProt P05121)
Assay: Test Example 2: Human PAI-1 Inhibitory Activity (pH 7.4 HEPES buffer, 10 minutes incubation with two-chain tPA)
Assay type: biochemical
Set-up: purchased Molecular Innovations, Inc
Settings: for inhibition at 0.1 µM / inhibition at 0.3 µM / inhibition at 1 µM / inhibition at 3 µM / inhibition at 10 µM / inhibition at 25 µM: read-out: Inhibition Rate of PAI-1 Activity (%)
Protocol: 0.1 M HEPES, 0.1 M NaCl. 1 mM EDTA. 0.1 % Polyethylene glycol 8,000 (Hampton Research Corporation),
2 mM Dimethyldecylphoshine oxide [Apo-10] (Fluka Corporation)

Sequence of recombinant human PAI-1 (P05121 24-402): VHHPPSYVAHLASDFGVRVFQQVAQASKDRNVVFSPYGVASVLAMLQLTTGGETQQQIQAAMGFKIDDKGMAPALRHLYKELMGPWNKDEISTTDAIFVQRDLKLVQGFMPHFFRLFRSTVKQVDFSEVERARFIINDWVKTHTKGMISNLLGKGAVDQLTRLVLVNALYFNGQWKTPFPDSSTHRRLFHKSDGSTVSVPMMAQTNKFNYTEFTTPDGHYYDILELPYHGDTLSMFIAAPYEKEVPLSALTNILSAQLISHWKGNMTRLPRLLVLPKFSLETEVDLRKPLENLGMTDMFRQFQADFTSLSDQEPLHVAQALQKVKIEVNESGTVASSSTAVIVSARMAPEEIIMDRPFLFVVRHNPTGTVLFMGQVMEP

CCCCCOc1ccc(-c2ccc(OC(F)(F)F)cc2)cc1N(CCCOc1ccccc1)C(=O)C(=O)O [Compound 356]
inhibition at 0.1 µM: 7% | inhibition at 0.3 µM: 13% | inhibition at 1 µM: 53% | inhibition at 3 µM: > 99%

CCCCCOc1ccc(-c2ccc(OC(F)(F)F)cc2)cc1N(CCCSc1ccccc1)C(=O)C(=O)O [Compound 357]
inhibition at 0.1 µM: 0% | inhibition at 0.3 µM: 2% | inhibition at 1 µM: 69% | inhibition at 3 µM: > 99%

CCCCCN(C(=O)C(=O)O)c1cc(-c2ccc(OC(F)(F)F)cc2)ccc1OCCCCc1ccccc1 [Compound 358]
inhibition at 0.1 µM: 0% | inhibition at 0.3 µM: 10% | inhibition at 1 µM: 55% | inhibition at 3 µM: 98%

CCCCCOc1ccc(-c2ccc(F)cc2)cc1N(CCCCc1ccccc1)C(=O)C(=O)O [Compound 359]
inhibition at 0.1 µM: 1% | inhibition at 0.3 µM: 7% | inhibition at 1 µM: 26% | inhibition at 3 µM: 96%

CCCCCOc1ccc(-c2ccccc2)cc1N(CCCCc1ccccc1)C(=O)C(=O)O [Compound 360]
inhibition at 0.1 µM: 5% | inhibition at 0.3 µM: 8% | inhibition at 1 µM: 35% | inhibition at 3 µM: 92%

CCCCCOc1ccc(-c2ccc(Cl)cc2)cc1N(CCCCc1ccccc1)C(=O)C(=O)O [Compound 361]
inhibition at 0.1 µM: 9% | inhibition at 0.3 µM: 5% | inhibition at 1 µM: 68% | inhibition at 3 µM: 97%

CCCCCOc1cc(Oc2ccc(OC(F)(F)F)cc2)ccc1N(CCCCc1ccccc1)C(=O)C(=O)O [Compound 362]
inhibition at 0.1 µM: 11% | inhibition at 0.3 µM: 18% | inhibition at 1 µM: 61% | inhibition at 3 µM: > 99%

CCCCCOc1ccc(Oc2ccc(OC(F)(F)F)cc2)cc1N(CCCCc1ccccc1)C(=O)C(=O)O [Compound 363]
inhibition at 0.1 µM: 2% | inhibition at 0.3 µM: 4% | inhibition at 1 µM: 72% | inhibition at 3 µM: > 99%

CCCCCCCCCOc1ccc(-c2ccc(OC(F)(F)F)cc2)cc1N(CCCCc1ccccc1)C(=O)C(=O)O [Compound 364]
inhibition at 0.1 µM: 41% | inhibition at 0.3 µM: 94% | inhibition at 1 µM: 97% | inhibition at 3 µM: 92%

CCCCCCCCCCOc1ccc(-c2ccc(OC(F)(F)F)cc2)cc1N(CCCCc1ccccc1)C(=O)C(=O)O [Compound 365]
inhibition at 0.1 µM: 41% | inhibition at 0.3 µM: 97% | inhibition at 1 µM: 97% | inhibition at 3 µM: 92%

CCCCCOc1ccc(-c2ccc(OC(F)(F)F)cc2)cc1N(CCCCC)C(=O)C(=O)O [Compound 366]
inhibition at 0.1 µM: 8% | inhibition at 0.3 µM: 24% | inhibition at 1 µM: 46% | inhibition at 3 µM: 96%

CCCCCOc1cc(-c2ccc(OC(F)(F)F)cc2)ccc1N(CCCCc1ccccc1)C(=O)C(=O)O [Compound 367]
inhibition at 0.1 µM: 10% | inhibition at 0.3 µM: 26% | inhibition at 1 µM: 52% | inhibition at 3 µM: 94%

O=C(O)C(=O)N(CCCCc1ccccc1)c1cc(-c2ccc(OC(F)(F)F)cc2)ccc1OC1CCCCC1 [Compound 368]
inhibition at 0.1 µM: 0% | inhibition at 0.3 µM: 22% | inhibition at 1 µM: 95% | inhibition at 3 µM: 85%

CCC(CC)Oc1ccc(-c2ccc(OC(F)(F)F)cc2)cc1N(CCCCc1ccccc1)C(=O)C(=O)O [Compound 369]
inhibition at 0.1 µM: 0% | inhibition at 0.3 µM: 8% | inhibition at 1 µM: 70% | inhibition at 3 µM: 95%

O=C(O)C(=O)N(CCCCc1ccccc1)c1cc(-c2ccc(OC(F)(F)F)cc2)ccc1N1CCCCC1 [Compound 370]
inhibition at 0.1 µM: 0% | inhibition at 0.3 µM: 0% | inhibition at 1 µM: 66% | inhibition at 3 µM: 97%

CCCCCCCc1ccc(-c2ccc(OC(F)(F)F)cc2)cc1N(CCCCc1ccccc1)C(=O)C(=O)O [Compound 371]
IC50 (concentration that inhibits 50 % of the human PAI-1 activity, calculated from the inhibition rates of Test Example 2, read-out: IC50): 690 nM | inhibition at 0.1 µM: 10% | inhibition at 0.3 µM: 17% | inhibition at 1 µM: 93% | inhibition at 3 µM: 91%

CCCCCOc1cc(-c2ccc(OC(F)(F)F)cc2)cc(N(CCCCc2ccccc2)C(=O)C(=O)O)c1OCCCCC [Compound 372]
inhibition at 0.1 µM: 2% | inhibition at 0.3 µM: 27% | inhibition at 1 µM: 97% | inhibition at 3 µM: 93%

CC(C)(C)Oc1ccc(-c2ccc(OC(F)(F)F)cc2)cc1N(CCCCc1ccccc1)C(=O)C(=O)O [Compound 373]
inhibition at 0.1 µM: 0% | inhibition at 0.3 µM: 0% | inhibition at 1 µM: 28% | inhibition at 3 µM: 90%

CCCCCOc1ccc(-c2ccc(OC(F)(F)F)cc2)cc1N(CCCCOc1ccccc1)C(=O)C(=O)O [Compound 374]
inhibition at 0.1 µM: 5% | inhibition at 0.3 µM: 16% | inhibition at 1 µM: 57% | inhibition at 3 µM: > 99%

CCCCCCCCCCCCCCCOc1ccc(-c2ccc(OC(F)(F)F)cc2)cc1N(CCCCc1ccccc1)C(=O)C(=O)O [Compound 375]
inhibition at 0.1 µM: 73% | inhibition at 0.3 µM: 97% | inhibition at 1 µM: > 99% | inhibition at 3 µM: 79%

CCCCCOc1cc(-c2cccc(C)c2)ccc1N(CCCCc1ccccc1)C(=O)C(=O)O [Compound 376]
inhibition at 0.1 µM: 6% | inhibition at 0.3 µM: 15% | inhibition at 1 µM: 62% | inhibition at 3 µM: 95%

CCCCCOc1cc(-c2cccc(C(F)(F)F)c2)ccc1N(CCCCc1ccccc1)C(=O)C(=O)O [Compound 377]
inhibition at 0.1 µM: 1% | inhibition at 0.3 µM: 23% | inhibition at 1 µM: 83% | inhibition at 3 µM: 94%

CCCCCOc1ccc(-c2cccc(C(F)(F)F)c2)cc1N(CCCCc1ccccc1)C(=O)C(=O)O [Compound 378]
inhibition at 0.1 µM: 20% | inhibition at 0.3 µM: 7% | inhibition at 1 µM: 80% | inhibition at 3 µM: 91%

CCCCCOc1ccc(-c2cccc(C)c2)cc1N(CCCCc1ccccc1)C(=O)C(=O)O [Compound 379]
inhibition at 0.1 µM: 14% | inhibition at 0.3 µM: 17% | inhibition at 1 µM: 78% | inhibition at 3 µM: 92%

CCCCCCCCCOc1cc(-c2ccc(OC(F)(F)F)cc2)ccc1N(CCCCc1ccccc1)C(=O)C(=O)O [Compound 380]
inhibition at 0.1 µM: 76% | inhibition at 0.3 µM: 96% | inhibition at 1 µM: 97% | inhibition at 3 µM: > 99%

O=C(O)C(=O)N(CCCCc1ccccc1)c1cc(-c2ccc(OC(F)(F)F)cc2)ccc1OCCCCC(F)(F)F [Compound 381]
inhibition at 0.1 µM: 12% | inhibition at 0.3 µM: 13% | inhibition at 1 µM: 48% | inhibition at 3 µM: > 99%

CCCCCOc1ccc(-c2ccc(OC(F)(F)F)cc2)cc1N(CCCCc1ccc(F)cc1)C(=O)C(=O)O [Compound 382]
inhibition at 0.1 µM: 13% | inhibition at 0.3 µM: 12% | inhibition at 1 µM: 84% | inhibition at 3 µM: 97%

O=C(O)C(=O)N(CCCCc1ccccc1)c1cc(-c2ccc(OC(F)(F)F)cc2)ccc1OCCC(F)(F)F [Compound 383]
inhibition at 0.1 µM: 2% | inhibition at 0.3 µM: 6% | inhibition at 1 µM: 32% | inhibition at 3 µM: 98%

CCCCCOc1ccc(-c2ccc(OC(F)(F)F)cc2)cc1N(CCCCc1ccc(Cl)cc1)C(=O)C(=O)O [Compound 384]
inhibition at 0.1 µM: 0% | inhibition at 0.3 µM: 11% | inhibition at 1 µM: 91% | inhibition at 3 µM: 95%

CCCCCCCCCCCCCCCOc1cc(-c2ccc(OC(F)(F)F)cc2)ccc1N(CCCCc1ccccc1)C(=O)C(=O)O [Compound 385]
inhibition at 0.1 µM: 74% | inhibition at 0.3 µM: > 99% | inhibition at 1 µM: > 99% | inhibition at 3 µM: > 99%

CCCCCCCOc1cc(-c2ccc(OC(F)(F)F)cc2)ccc1N(CCCCc1ccccc1)C(=O)C(=O)O [Compound 386]
inhibition at 0.1 µM: 5% | inhibition at 0.3 µM: 18% | inhibition at 1 µM: > 99% | inhibition at 3 µM: > 99%

CCCCCCCCCOc1ccc(N(CCCCc2ccccc2)C(=O)C(=O)O)cc1-c1ccc(OC(F)(F)F)cc1 [Compound 387]
inhibition at 0.1 µM: 66% | inhibition at 0.3 µM: > 99% | inhibition at 1 µM: > 99% | inhibition at 3 µM: > 99%

CCCCCCCCCOc1cc(N(Cc2ccc(C(C)(C)C)cc2)C(=O)C(=O)O)ccc1-c1ccc(OC(F)(F)F)cc1 [Compound 388]
inhibition at 0.1 µM: 75% | inhibition at 0.3 µM: > 99% | inhibition at 1 µM: > 99% | inhibition at 3 µM: > 99%

CCCCCCCCCOc1cc(N(CCCCc2ccccc2)C(=O)C(=O)O)ccc1-c1ccc(OC(F)(F)F)cc1 [Compound 389]
inhibition at 0.1 µM: 65% | inhibition at 0.3 µM: 97% | inhibition at 1 µM: > 99% | inhibition at 3 µM: > 99%

CCCCCOc1ccc(-c2ccc(C(F)(F)F)cc2)cc1N(CCCCc1ccccc1)C(=O)C(=O)O [Compound 390]
inhibition at 0.1 µM: 4% | inhibition at 0.3 µM: 12% | inhibition at 1 µM: 79% | inhibition at 3 µM: 87%

CCCCCOc1ccc(-c2cccc(OC(F)(F)F)c2)cc1N(CCCCc1ccccc1)C(=O)C(=O)O [Compound 391]
inhibition at 0.1 µM: 10% | inhibition at 0.3 µM: 8% | inhibition at 1 µM: 69% | inhibition at 3 µM: 89%

CCCCCOc1cc(-c2ccc(C(F)(F)F)cc2)ccc1N(CCCCc1ccccc1)C(=O)C(=O)O [Compound 392]
inhibition at 0.1 µM: 7% | inhibition at 0.3 µM: 14% | inhibition at 1 µM: 77% | inhibition at 3 µM: > 99%

CCCCCOc1cc(-c2cccc(OC(F)(F)F)c2)ccc1N(CCCCc1ccccc1)C(=O)C(=O)O [Compound 393]
inhibition at 0.1 µM: 8% | inhibition at 0.3 µM: 19% | inhibition at 1 µM: 75% | inhibition at 3 µM: 97%

CCCCCCCOc1ccc(N(CCCCc2ccccc2)C(=O)C(=O)O)cc1-c1ccc(OC(F)(F)F)cc1 [Compound 394]
inhibition at 0.1 µM: 13% | inhibition at 0.3 µM: 69% | inhibition at 1 µM: 98% | inhibition at 3 µM: > 99%

O=C(O)c1cc(-c2ccc(OC(F)(F)F)cc2)ccc1OCc1ccccc1 [Compound 401]
inhibition at 3 µM: 15% | inhibition at 10 µM: 17% | inhibition at 25 µM: 53%

CCCCOc1ccc(-c2ccc(OC(F)(F)F)cc2)cc1C=CC(=O)O [Compound 405]
inhibition at 1 µM: 14% | inhibition at 3 µM: 63% | inhibition at 10 µM: > 99% | inhibition at 25 µM: 95%
